Experimental data as given in PMC11243320, “Tailoring Fibroblast-Activation Protein Targeting for Theranostics: A Comparative Preclinical Evaluation of the ^68Ga- and ^177Lu-Labeled Monomeric and Dimeric Fibroblast-Activation Protein Inhibitors DOTA.SA.FAPi and DOTAGA.(SA.FAPi)2” (Molecules, 2024).

System: U87MG tumor-bearing mice
Test: Ex vivo biodistribution of 68Ga-labeled radiotracers in U87MG xenografts
Description: U87MG and PC3 tumor-bearing mice: Female athymic BALB/c (6 weeks/16–20 g) and male athymic BALB/c nude mice (6 weeks/20–25 g) were implanted with U87MG or PC3 cells (5 × 10^6/100 µL PBS) into their right shoulder, respectively. The animals were used for biodistribution and PET/SPECT/CT imaging studies (Animal License No: BE98/2021).
Ten pmol (0.08–0.1 MBq) of the radiotracers in 100 µL of NaCl 0.9% were injected intravenously into the tail vein of U87MG and PC3 tumor-bearing mice and biodistribution studies were conducted at 1, 2, and 3 h after injection.
Saturation Binding Studies […]
The radioactivity of the culture medium, the receptor bound , the internalized and the externalized fractions were measured in a γ -counter. The externalized fraction of radioactivity was ex-pressed as the percentage of the total internalized amount.
[68Ga]Ga -DOTA.SA.FAPi and [ 68Ga]Ga -DOTAGA.(SA.FAPi) 2
Ten pmol ( 0.08 –0.1 MBq) of [68Ga]Ga -monomer and [ 68Ga]Ga -dimer in 100 µ L of NaCl 0.9% were injected intravenously into the tail vein of U87MG or PC3 tumor bearing mice . The PC3 tumor-bearing mice were used between the 15th and 17th day after the xenograft implantation and the size was 281 ± 75 mm3. The U87MG tumor-bearing mice were used between the 7th and 9th day after the implantation and the size was 210 ± 34 mm3. Animals were terminally anesthetized by intraperitoneal injection of an overdose of pento-barbital natrium (150 mg/kg; Streuli Pharma SA, Uznach, Switzerland) at 1, 2 and 3 h after injection of the radiotracers. The organs of interest were dissected and weighed, and the radioactivity in the tissue samples […]
was counted in a γ-counter. Biodistribution data are given as the percent of injected activity per gram of tissue (% IA/g) and as means ± SD (n = 4). […]
each radiotracer along with 20 nmol of UAMC1110 (total injected volume: 100 µL) and biodistribution stud-ies were performed 2 h after injection.
[177Lu]Lu-DOTA.SA.FAPi and [177Lu]Lu-DOTAGA.(SA.FAPi)2
Ten pmol (0.06-0.08 MBq) of [177Lu]Lu-monomer and [177Lu]Lu-dimer in 100 µL of NaCl 0.9% were injected intravenously into the tail vein of PC3 tumor-bearing mice. The PC3 tumor-bearing mice were used between the 15th and 17th day after the xenograft implantation and its size was 281 ± 75 mm3. Animals were terminally anesthetized by intraperitoneal injection of an overdose of pentobarbital natrium (150 mg/kg; Streuli Pharma SA, Uznach, Switzerland) 1, 4, 24 and 48 h after the injection of [177Lu]Lu-DOTA.SA.FAPi and at 4, 24, 48, 72 and 96 h after the injection of [177Lu]Lu-DOTAGA.(SA.FAPi)2. The organs of interest were dissected and weighed, and the radioactivity in the tissue samples was counted in a γ-counter. The biodistribution data are given as the percent of injected activity per gram of tissue (% IA/g) and as means ± SD (n = 4). […]
blood pools or if they were necrotic. Both tumor types were “clean” without extended vascularization; there […]
Small Animal Imaging Studies
PET images were obtained after injection of 200 pmol of [68Ga]Ga-DOTA.SA.FAPi and [68Ga]Ga-DOT-AGA.(SA.FAPi)2 (1.0–1.6 MBq/100 μL) into U87MG or PC3 xenografts at 1, 2 and 3 h after injection. Static imaging was acquired for a time period between 10 and 45 min at 1, 2 and 3 h post injection, respectively.
To visualize the extent of FAP-specific tumor uptake, PET/CT blocking studies were performed as described above, and static scans were obtained for 30 min 2 h after the injection of the radiotracer along with the blocking agent (20 nmol).
PET images were corrected for gallium-68 decay and reconstructed with 12 iterations of the maximum a posteriori (MAP) algorithm using a voxel size of 0.25 mm. No correction was applied for attenuation. In addition, a point spread function iterative deconvolution was applied. The images were normalized, filtered using a Gaussian 3D algorithm with a 1.3 mm isotropic kernel and generated using PMOD software. The CT was carried out using step and shoot mode and employed 45 kVp and 400 uA as settings. The images […]

[1] = 2 h blocking (20 nmol UAMC1110)

With `N#C[C@@H]1CC(F)(F)CN1C(=O)CNC(=O)c1ccnc2ccc(OCCCCNc3c(NCCNC(=O)CN4CCN(CC(=O)[O-])CCN(CC(=O)[O-])CCN(CC(=O)[O-])CC4)c(=O)c3=O)cc12.[68Ga+3]` [[^68Ga]Ga-DOTA.SA.FAPi] the “Biodistribution Blood” value (1 h) was 13.4 ± 0.2 % IA/g, the “Biodistribution Bone” value (1 h) was 2.1 ± 0.2 % IA/g and the “Biodistribution Heart” value (1 h) was 4.9 ± 0.6 % IA/g. The “Biodistribution Intestine” value (1 h) was 2.9 ± 0.5 % IA/g, the “Biodistribution Kidney” value (1 h) was 3.5 ± 0.7 % IA/g and the “Biodistribution Liver” value (1 h) was 3.2 ± 0.4 % IA/g. For the same molecule, the “Biodistribution Lung” value (1 h) was 3.2 ± 1.7 % IA/g, the “Biodistribution Muscle” value (1 h) was 2.6 ± 1.4 % IA/g and the “Biodistribution Pancreas” value (1 h) was 9.7 ± 2.7 % IA/g. The “Biodistribution Spleen” value (1 h) was 2.3 ± 0.4 % IA/g, the “Biodistribution Stomach” value (1 h) was 2.1 ± 0.6 % IA/g and the “Biodistribution U87MG-Tumor” value (1 h) was 6.5 ± 0.7 % IA/g. It also gave a Tumor/Blood ratio (1 h) of 0.5 ± 0.03, a Tumor/Liver ratio (1 h) of 2.0 ± 0.3 and a Tumor/Muscle ratio (1 h) of 2.3 ± 0.7. For the same molecule, the Tumor/Pancreas ratio (1 h) was 0.7 ± 0.2, the “Biodistribution Blood” value (2 h) was 8.5 ± 1.5 % IA/g and the “Biodistribution Bone” value (2 h) was 1.3 ± 0.2 % IA/g. For the same molecule, the “Biodistribution Heart” value (2 h) was 3.1 ± 0.9 % IA/g, the “Biodistribution Intestine” value (2 h) was 3.2 ± 0.7 % IA/g and the “Biodistribution Kidney” value (2 h) was 2.7 ± 0.6 % IA/g. For the same molecule, the “Biodistribution Liver” value (2 h) was 3.1 ± 0.9 % IA/g, the “Biodistribution Lung” value (2 h) was 2.2 ± 1.0 % IA/g and the “Biodistribution Muscle” value (2 h) was 2.8 ± 1.1 % IA/g. For the same molecule, the “Biodistribution Pancreas” value (2 h) was 10.5 ± 2.8 % IA/g, the “Biodistribution Spleen” value (2 h) was 1.6 ± 0.5 % IA/g and the “Biodistribution Stomach” value (2 h) was 2.0 ± 0.5 % IA/g. The “Biodistribution U87MG-Tumor” value (2 h) was 5.2 ± 1.4 % IA/g, the Tumor/Blood ratio (2 h) was 0.7 ± 0.3 and the Tumor/Liver ratio (2 h) was 1.7 ± 0.5. The Tumor/Muscle ratio (2 h) was 1.9 ± 1.5, the Tumor/Pancreas ratio (2 h) was 0.5 ± 0.2 and the “Biodistribution Blood” value [1] was 0.5 ± 0.1 % IA/g. The “Biodistribution Bone” value [1] was 1.7 ± 0.6 % IA/g, the “Biodistribution Heart” value [1] was 0.7 ± 0.3 % IA/g and the “Biodistribution Intestine” value [1] was 1.3 ± 0.1 % IA/g. The “Biodistribution Kidney” value [1] was 2.5 ± 0.8 % IA/g, the “Biodistribution Liver” value [1] was 0.3 ± 0.03 % IA/g and the “Biodistribution Lung” value [1] was 1.1 ± 0.2 % IA/g. The “Biodistribution Muscle” value [1] was 1.4 ± 0.8 % IA/g, the “Biodistribution Pancreas” value [1] was 0.6 ± 0.4 % IA/g and the “Biodistribution Spleen” value [1] was 0.7 ± 0.3 % IA/g. The “Biodistribution Stomach” value [1] was 0.7 ± 0.4 % IA/g, the “Biodistribution U87MG-Tumor” value [1] was 1.1 ± 0.8 % IA/g and the “Biodistribution Blood” value (3 h) was 6.2 ± 0.5 % IA/g. The “Biodistribution Bone” value (3 h) was 3.0 ± 1.6 % IA/g, the “Biodistribution Heart” value (3 h) was 3.7 ± 0.7 % IA/g and the “Biodistribution Intestine” value (3 h) was 3.5 ± 0.7 % IA/g. For the same molecule, the “Biodistribution Kidney” value (3 h) was 3.4 ± 0.3 % IA/g, the “Biodistribution Liver” value (3 h) was 3.9 ± 0.3 % IA/g and the “Biodistribution Lung” value (3 h) was 3.1 ± 1.0 % IA/g. The “Biodistribution Muscle” value (3 h) was 3.1 ± 0.9 % IA/g, the “Biodistribution Pancreas” value (3 h) was 8.7 ± 1.3 % IA/g and the “Biodistribution Spleen” value (3 h) was 2.8 ± 1.0 % IA/g. The “Biodistribution Stomach” value (3 h) was 2.2 ± 0.5 % IA/g, the “Biodistribution U87MG-Tumor” value (3 h) was 4.9 ± 1.0 % IA/g and the Tumor/Blood ratio (3 h) was 0.8 ± 0.3. For the same molecule, the Tumor/Liver ratio (3 h) was 1.3 ± 0.5, the Tumor/Muscle ratio (3 h) was 1.7 ± 1.2 and the Tumor/Pancreas ratio (3 h) was 0.6 ± 0.3.
